Experimental data: patent US20230391772A1, “METHODS AND COMPOSITIONS FOR TARGETED PROTEIN DEGRADATION” (Ranok Therapeutics (Hangzhou) Co. Ltd., priority 2020, published 2023)

Assays:
[1] = target: T1, HSP90a protein (Homo sapiens, UniProt P07900); experiment: HSP90α-binding fluorescent polarization (FP) assay, FITC-geldanamycin probe; conditions: FP competition with FITC-geldanamycin, 5 nM, 120 min at 25° C.
T1 construct: purchased BPS Bioscience 50298
Method: HSP90α-Binding Fluorescent Polarization (FP) Assay
Binding of test compounds to HSP90a protein was measured by fluorescent polarization (FP) using the HSP90a (N-terminal) Assay Kit (BPS Bioscience, #50298), following the manufacturer's instructions, except as noted. Fluorescently labeled HSP90-binding compounds, either the provided FITC-geldanamycin (5 nM final concentration) or RNK04010, a triazolone-based HSP90 binding small molecule labeled with BODIPY through a piperizine-phenyl linker (5 nM final concentration) were employed. A 2.5-fold serial dilution of each test compound ranging from 20 μM to 5.2 nM was assayed for binding to HSP90a. After the final step of adding HSP90a protein to each assay well, plates were mixed by brief shaking, incubated at 25° C. for 120 min for FITC-geldanamycin or 300 min for RNK04010, and fluorescence was measured using a PerkinElmer EnVision Plate Reader.

[2] = system: NCI-H358 human non-small cell lung cancer; experiment: NCI-H358 CCK-8 proliferation assay; type: cell-based; conditions: NCI-H358 cells, 72 hr
Method in brief: (§1)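 Compounds were tested as a 3-fold series from 20 μM down to 1.02 nM in CCK-8 absorbance assays. The lines used were NCI-H23 and NCI-H358, each with 1 KRAS(G12C) copy, and MIA PaCa-2 with 2 copies. Inhibition was derived relative to DMSO controls, with a no-cell blank subtracted.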

[3] = system: MIA PaCa-2 human pancreatic carcinoma; experiment: MIA PaCa-2 CCK-8 proliferation assay; type: cell-based; conditions: Homo sapiens, MIA PaCa-2, 72 h, MIA PaCa-2 cells
Method in brief: as §1

[4] = target: T1, HSP90a protein; experiment: HSP90α-binding fluorescent polarization (FP) assay, BODIPY-labeled RNK04010 probe; conditions: FP competition with RNK04010 (BODIPY-labeled), 5 nM, 300 min at 25° C.
Method in brief: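 Competitive FP with N-terminal HSP90a; probe at 5 nM final, either BODIPY-labeled triazolone RNK04010 or FITC-geldanamycin. Test compounds as 2.5-fold dilutions from 20 μM to 5.2 nM. Incubated at 25 °C for 300 min (RNK04010) or 120 min (FITC-geldanamycin) before reading polarization.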

| SMILES | IC50 [1] [µM] | EC50 [2] [µM] | EC50 [3] [µM] | IC50 [4] [µM] |
| --- | --- | --- | --- | --- |
| CCC(=O)N1CCN(c2nc(OC[C@@H]3CCN(C(=O)C4CCN(Cc5ccc(-n6c(O)nnc6-c6cc(C(C)C)c(O)cc6O)cc5)CC4)C3)nc3c2CCN(c2cccc4cccc(Cl)c24)C3)C[C@@H]1CC#N [Compound 141, 2-((S)-4-(7-(8-chloronaphthalen-1-yl)-2-(((R)-1-(1-(4-(3-(2,4-dihydroxy-5-isopropylphenyl)-5-hydroxy-4H-1,2,4-triazol-4-yl)benzyl)piperidine-4-carbonyl)pyrrolidin-3-yl)methoxy)-5,6,7,8-tetrahydropyrido[3,4-d]pyrimidin-4-yl)-1-propionylpiperazin-2-yl)acetonitrile] | 0.1 to 1 | 0.1 to 1 | – | – |
| CCC(=O)N1CCN(c2nc(OC[C@@H]3CCN3C(=O)C3CCN(Cc4ccc(-n5c(O)nnc5-c5cc(C(C)C)c(O)cc5O)cc4)CC3)nc3c2CCN(c2cccc4cccc(Cl)c24)C3)C[C@@H]1CC#N [Compound 152, 2-((S)-4-(7-(8-chloronaphthalen-1-yl)-2-(((S)-1-(1-(4-(3-(2,4-dihydroxy-5-isopropylphenyl)-5-hydroxy-4H-1,2,4-triazol-4-yl)benzyl)piperidine-4-carbonyl)azetidin-2-yl)methoxy)-5,6,7,8-tetrahydropyrido[3,4-d]pyrimidin-4-yl)-1-propionylpiperazin-2-yl)acetonitrile, trifluoroacetic acid] | < 0.1 | > 1 | – | – |
| C=C(F)C(=O)N1CCN(c2nc(N3CCC(CN4CCC(Cc5ccc(-n6c(O)nnc6-c6cc(C(C)C)c(O)cc6O)cc5)CC4)CC3)nc3c2CCN(c2cccc4cccc(Cl)c24)C3)C[C@@H]1CC#N [Compound 137, (S)-2-(4-(7-(8-chloronaphthalen-1-yl)-2-(4-((4-(4-(3-(2,4-dihydroxy-5-isopropylphenyl)-5-hydroxy-4H-1,2,4-triazol-4-yl)benzyl)piperidin-1-yl)methyl)piperidin-1-yl)-5,6,7,8-tetrahydropyrido[3,4-d]pyrimidin-4-yl)-1-(2-fluoroacryloyl)piperazin-2-yl)acetonitrile, acetic acid] | 0.1 to 1 | 0.1 to 1 | – | – |
| CCC(=O)N1CCN(c2nc(N3CCC(CN4CCN(Cc5ccc(-n6c(O)nnc6-c6cc(CC)c(O)cc6O)cc5)CC4)CC3)nc3c2CCN(c2cccc4cccc(Cl)c24)C3)C[C@@H]1CC#N [Compound 133, (S)-2-(4-(7-(8-chloronaphthalen-1-yl)-2-(4-((4-(4-(3-(5-ethyl-2,4-dihydroxyphenyl)-5-hydroxy-4H-1,2,4-triazol-4-yl)benzyl)piperazin-1-yl)methyl)piperidin-1-yl)-5,6,7,8-tetrahydropyrido[3,4-d]pyrimidin-4-yl)-1-propionylpiperazin-2-yl)acetonitrile, trifluoroacetic acid] | 0.1 to 1 | 0.1 to 1 | – | – |
| C=C(F)C(=O)N1CCN(c2nc(N3CCC(Cc4ccc(-n5c(C(=O)NCC(F)(F)F)nnc5-c5cc(C(C)C)c(O)cc5O)cc4)CC3)nc3c2CCN(c2cccc4cccc(Cl)c24)C3)C[C@@H]1CC#N [Compound 142, (S)-4-(4-((1-(7-(8-chloronaphthalen-1-yl)-4-(3-(cyanomethyl)-4-(2-fluoroacryloyl)piperazin-1-yl)-5,6,7,8-tetrahydropyrido[3,4-d]pyrimidin-2-yl)piperidin-4-yl)methyl)phenyl)-5-(2,4-dihydroxy-5-isopropylphenyl)-N-(2,2,2-trifluoroethyl)-4H-1,2,4-triazole-3-carboxamide] | > 1 | > 1 | – | – |
| C=C(F)C(=O)N1CCN(c2nc(OC[C@@H]3CCN(C(=O)C4CCN(Cc5ccc(-n6c(C(N)=O)nnc6-c6cc(C(C)C)c(O)cc6O)cc5)CC4)C3)nc3c2CCN(c2cccc4cccc(Cl)c24)C3)C[C@@H]1CC#N [Compound 166, 4-(4-((4-((R)-3-(((7-(8-chloronaphthalen-1-yl)-4-((S)-3-(cyanomethyl)-4-(2-fluoroacryloyl)piperazin-1-yl)-5,6,7,8-tetrahydropyrido[3,4-d]pyrimidin-2-yl)oxy)methyl)pyrrolidine-1-carbonyl)piperidin-1-yl)methyl)phenyl)-5-(2,4-dihydroxy-5-isopropylphenyl)-4H-1,2,4-triazole-3-carboxamide] | 0.1 to 1 | – | < 0.1 | – |
| CCC(=O)N1CCN(c2nc(NCCCNC(=O)C3CCN(Cc4ccc(-n5c(O)nnc5-c5cc(C(C)C)c(O)cc5O)cc4)CC3)nc3c2CCN(c2cccc4cccc(Cl)c24)C3)C[C@@H]1CC#N [Compound 134, (S)—N-(3-((7-(8-chloronaphthalen-1-yl)-4-(3-(cyanomethyl)-4-propionylpiperazin-1-yl)-5,6,7,8-tetrahydropyrido[3,4-d]pyrimidin-2-yl)amino)propyl)-1-(4-(3-(2,4-dihydroxy-5-isopropylphenyl)-5-hydroxy-4H-1,2,4-triazol-4-yl)benzyl)piperidine-4-carboxamide, trifluoroacetic acid] | 0.1 to 1 | > 1 | – | – |
| C=C(F)C(=O)N1CCN(c2nc(OC[C@@H]3CCN(C(=O)C4CCN(Cc5ccc(-n6c(O)nnc6-c6cc(CC)c(O)cc6O)cc5)CC4)C3)nc3c2CCN(c2cccc4cccc(Cl)c24)C3)C[C@@H]1CC#N [Compound 167, 2-((S)-4-(7-(8-chloronaphthalen-1-yl)-2-(((R)-1-(1-(4-(3-(5-ethyl-2,4-dihydroxyphenyl)-5-hydroxy-4H-1,2,4-triazol-4-yl)benzyl)piperidine-4-carbonyl)pyrrolidin-3-yl)methoxy)-5,6,7,8-tetrahydropyrido[3,4-d]pyrimidin-4-yl)-1-(2-fluoroacryloyl)piperazin-2-yl)acetonitrile] | < 0.1 | – | 0.1 to 1 | – |
| C=C(F)C(=O)N1CCN(c2nc(OC[C@@H]3CCN(C(=O)c4ccc5c(c4)CN(C(=O)c4cc(C(C)C)c(O)cc4O)C5)C3)nc3c2CCN(c2cccc4cccc(Cl)c24)C3)C[C@@H]1CC#N [Compound 165, 2-((S)-4-(7-(8-chloronaphthalen-1-yl)-2-(((R)-1-(2-(2,4-dihydroxy-5-isopropylbenzoyl)isoindoline-5-carbonyl)pyrrolidin-3-yl)methoxy)-5,6,7,8-tetrahydropyrido[3,4-d]pyrimidin-4-yl)-1-(2-fluoroacryloyl)piperazin-2-yl)acetonitrile] | 0.1 to 1 | – | > 1 | – |

Second part, the molecule after the results:

| IC50 [1] [µM] | EC50 [2] [µM] | EC50 [3] [µM] | IC50 [4] [µM] | SMILES |
| --- | --- | --- | --- | --- |
| > 1 | – | > 1 | – | C=C(F)C(=O)N1CCN(c2nc(OC[C@@H]3CCN(C(=O)c4cc(C(C)C)c(O)cc4O)C3)nc3c2CCN(c2cccc4cccc(Cl)c24)C3)C[C@@H]1CC#N [Compound 171, 2-((S)-4-(7-(8-chloronaphthalen-1-yl)-2-(((R)-1-(2,4-dihydroxy-5-isopropylbenzoyl)pyrrolidin-3-yl)methoxy)-5,6,7,8-tetrahydropyrido[3,4-d]pyrimidin-4-yl)-1-(2-fluoroacryloyl)piperazin-2-yl)acetonitrile] |
| > 1 | – | > 1 | > 1 | C=C(F)C(=O)N1CCN(c2nc(OC[C@@H]3CCN(C(=O)c4cc(CC)c(O)cc4O)C3)nc3c2CCN(c2cccc4cccc(Cl)c24)C3)C[C@@H]1CC#N [Compound 174, 2-((S)-4-(7-(8-chloronaphthalen-1-yl)-2-(((R)-1-(5-ethyl-2,4-dihydroxybenzoyl)pyrrolidin-3-yl)methoxy)-5,6,7,8-tetrahydropyrido[3,4-d]pyrimidin-4-yl)-1-(2-fluoroacryloyl)piperazin-2-yl)acetonitrile] |
| < 0.1 | – | 0.1 to 1 | – | CC(C)c1cc(-c2nnc(O)n2-c2ccc(CN3CCC(C(=O)N4CC[C@@H](COc5nc6c(c(N7CCN(C(N)=O)[C@@H](CC#N)C7)n5)CCN(c5cccc7cccc(Cl)c57)C6)C4)CC3)cc2)c(O)cc1O [Compound 169, (S)-4-(7-(8-chloronaphthalen-1-yl)-2-(((R)-1-(1-(4-(3-(2,4-dihydroxy-5-isopropylphenyl)-5-hydroxy-4H-1,2,4-triazol-4-yl)benzyl)piperidine-4-carbonyl)pyrrolidin-3-yl)methoxy)-5,6,7,8-tetrahydropyrido[3,4-d]pyrimidin-4-yl)-2-(cyanomethyl)piperazine-1-carboxamide] |
| 0.1 to 1 | – | > 1 | – | C=C(F)C(=O)N1CCN(c2nc(OC[C@@H]3CCN(CCCOCCC(=O)NCc4ccc(-n5c(O)nnc5-c5cc(C(C)C)c(O)cc5O)cc4)C3)nc3c2CCN(c2cccc4cccc(Cl)c24)C3)C[C@@H]1CC#N [Compound 170] |
| > 1 | – | > 1 | > 1 | C=CC(=O)N1CCN(c2nc(OC[C@@H]3CCN(C(=O)c4ccc5c(c4)CN(C(=O)c4cc(C(C)C)c(OC)cc4O)C5)C3)nc3c2CCN(c2cccc4cccc(Cl)c24)C3)C[C@@H]1CC#N [Compound 173, 2-((S)-1-acryloyl-4-(7-(8-chloronaphthalen-1-yl)-2-(((R)-1-(2-(2-hydroxy-5-isopropyl-4-methoxybenzoyl)isoindoline-5-carbonyl)pyrrolidin-3-yl)methoxy)-5,6,7,8-tetrahydropyrido[3,4-d]pyrimidin-4-yl)piperazin-2-yl)acetonitrile] |
